Reference: patent US5637619A, “Antitumor 2-aminocarbonyl-1, 2-bis(methylsulfonyl)-1-(substituted)hydrazines” (Yale University, priority 1995, dated 1997)

Assays:
[1] = tested on: L1210 leukemia; experiment: L1210 leukemia survival time in mice (ip implanted); assay type: in vivo, mice (CD2F1); conditions: for %T/C (average survival time treated/control × 100): cures not included
Procedure: (§1) Leukemia L1210 cells were obtained from the Frederick Cancer Research Facility, Division of Cancer Treatment Tumor Repository of the National Cancer Institute, and were maintained by serial passage in tissue culture. Every 8 weeks, tumor cells were injected intraperitoneally into five donor CD2 F1 mice 8- to 10- weeks of age and were allowed to grow for 7 days. The peritoneal fluid was withdrawn and the suspension was centrifuged for 5 min at 1600 g. The supernatant was decanted and 10^5 cells/mL were seeded into 10 mL of RPMI 1640 medium supplemented with 10% fetal bovine serum and 1% L-glutamine, and once again maintained in culture. To assay for antineoplastic activity, 0.1 mL of the cell suspension containing 10^5 L1210 leukemia cells was injected ip into each recipient mouse. Test compounds were administered over a wide range of dosage levels, beginning 24 h after tumor implantation, and continued once daily for 6 consecutive days. All drugs were administered ip as a solution in 100% dimethylsulfoxide (DMSO), in a volume not exceeding 0.025 mL. […] Mice were weighed during the course of the experiments, and the percentage change in body weight from onset to termination of therapy was used as an indication of drug toxicity. Determination of the sensitivity of neoplasms to these agents was based upon the prolongation of survival time afforded by the drug treatments.
(§2) ^a Administered ip once daily for six consecutive days, beginning 24 hours after tumor implantation, with 5-10 mice being used per group. ^b Average percent change in body weight from onset to termination of therapy. ^c % T/C=average survival time of treated/control mice×100; cures (>60-day survivors) are listed separately and are not included in this calculation.

[2] = Body weight change / toxicity in L1210-bearing mice; assay type: in vivo, mice (CD2F1); conditions: L1210-bearing mice
Procedure: as §1, §2

[3] = tested on: M109 lung carcinoma; experiment: M109 lung carcinoma, sc implanted; assay type: in vivo, BALB/c mice
Procedure: (§3) The M5076 reticulum cell sarcoma was passaged biweekly by sc transfer of tumor fragments into C57BL/6 mice, and the M109 lung carcinoma was similarly passaged in BALB/c mice. The LX-1 human lung carcinoma was passaged sc every two to three weeks in BALB/c-background athymic (nu/nu) mice. For use in these systems, compound III was dissolved in: (a) 100% DMSO and administered by iv injection in a fixed volume of 10 microliters; or (b) DMSO diluted with saline to a final concentration of 10% DMSO and administered iv in a volume of 0.01 milliliter/g of body weight. […] Mitomycin C and cyclophosphamide were dissolved and administered in saline. BCNU and MeCCNU were dissolved in ethanol and diluted 1:9 (v/v) with water prior to administration.
(§4) Five mice per group were employed in experiments with the B16F10 melanoma, and 8 mice per group with the M5076 sarcoma, the M109 carcinoma and the LX-1 carcinoma. A minimum of two dose levels per compound were included in each evaluation and drug therapy was initiated 24 h after tumor implantation for the M5076 sarcoma and M109 carcinoma. In the LX-1 experiment, tumor bearing mice were selected and sorted into treatment and control groups on day 6 post-tumor implant such that all tumor weights ranged from 50-100 mg and median tumor weights per group were reasonably similar. Therapeutic results are presented in terms of: (a) increases in lifespan reflected by the relative median survival time (MST) of treated versus control groups (i.e., %T/C values), and by long-term survivors, and (b) primary tumor growth inhibition (i.e., T-C values) determined by calculating the relative median times for treated (T) and control untreated (C) mice to grow tumors of a 0.5 g size for the LX-1 carcinoma or a 1 g size for the murine neoplasms. Tumor weights were interchangeable with tumor size on the basis of 1 mm^3 =1 mg. […] The activity criterion for tumor inhibition was a delay in tumor growth consistent with one log10 cell kill (LCK). The absolute T-C value needed to attain this level of efficacy varied from experiment to experiment and depended upon the tumor volume doubling time of the control mice in each study. Treated mice dying prior to day 10 in the ip M109 experiment, or dying before their tumors achieved 0.5 g for the LX-1 carcinoma or 1 g in size for all other sc tumor models, were considered to have died from drug toxicity. Groups of mice with more than one death due to drug toxicity were not used in the evaluation of antitumor efficacy. Statistical evaluations of data were performed using Gehan's generalized Wilcoxan test (Gehan, Biometrika, 1965, 52, 203-233).
Compound III was also evaluated against the M109 lung carcinoma implanted subcutaneously (sc). In the initial test using this model, a dose of 50 mg/kg per injection of this compound was administered intravenously (iv) in 10% DMSO in saline every fourth day for a total of three injections. […] Mitomycin C, used as a reference drug, produced a maximum %T/C of 103 and a delay in tumor growth of 10 days (data not shown). A subsequent evaluation of compound III was performed using four different doses on a slightly different schedule, i.e., 24, 32, 48 and 64 mg/kg administered every third day for four total injections, and two vehicles, 10% DMSO in saline and 100% DMSO. […] Cyclophosphamide and mitomycin C were included as reference drugs in the last experiment. The former compound produced a maximum %T/C of 143 and a delay in tumor growth of 8.8 days, while mitomycin C produced a maximum %T/C of 134 and a T-C value of 9.3 days (data not shown). As reported earlier, compound X achieved a maximum %T/C of 136 and a maximum T-C value of 14.5 days against this tumor (Shyam, et al., J. Med. Chem., 1993, 36, 3496).

[4] = tested on: M5076 reticulum cell sarcoma; experiment: M5076 reticulum cell sarcoma, sc implanted; assay type: in vivo, C57BL/6 mice; conditions: 16 mg/kg per injection, iv every fourth day × 3
Procedure: as §3, §4
Compound III was also evaluated against the M5076 reticulum cell sarcoma implanted sc. When administered iv at a level of 48 mg/kg per injection in 100% DMSO every other day for five days, compound III cured 6 out of 8 mice and consequently, no median time (T-C value) to reach 1 gram size tumors was expressed for this group. Tumor growth in mice receiving only 100% DMSO was indistinguishable from that of untreated control animals. 1-(2-Chloroethyl)-3-(4-methylcyclohexyl)-1-nitrosourea (MeCCNU) and BCNU were included in this experiment for comparison. The former achieved a maximum %T/C of 128 and a delay in tumor growth of 33.5 days at 16 mg/kg per injection administered iv every fourth day for three total injections, while BCNU, administered iv on the same treatment schedule, produced a %T/C in excess of 157, with 2 out of 8 cures, and a T-C of >62 days (data not shown).

[5] = reference drugs in last experiment (experiment b)
[6] = reference drug in initial test (experiment a)

SMILES | %T/C (average survival time treated/control × 100) ([1]; 5 mg/kg ip once daily × 6) [%] | %T/C (average survival time treated/control × 100) ([1]; 10 mg/kg ip once daily × 6) [%] | %T/C (average survival time treated/control × 100) ([1]; 15 mg/kg ip once daily × 6) [%] | %T/C (average survival time treated/control × 100) ([1]; 20 mg/kg ip once daily × 6) [%] | % 60 Day Survivors (cures) ([1]; 50 mg/kg ip once daily × 6) [%] | Av. Wt. Change % ([2]; 5 mg/kg ip once daily × 6) [%] | Av. Wt. Change % ([2]; 10 mg/kg ip once daily × 6) [%] | Av. Wt. Change % ([2]; 15 mg/kg ip once daily × 6) [%] | Av. Wt. Change % ([2]; 20 mg/kg ip once daily × 6) [%] | Av. Wt. Change % ([2]; 25 mg/kg ip once daily × 6) [%] | Av. Wt. Change % ([2]; 50 mg/kg ip once daily × 6) [%] | Av. Wt. Change % ([2]; 100 mg/kg ip once daily × 6) [%] | % 60 Day Survivors (cures) ([1]; 10 mg/kg ip once daily × 6) [%] | also measured
CCOC(=O)C(Cc1ccccc1)NC(=O)N(N(CCCl)S(C)(=O)=O)S(C)(=O)=O (stereo not shown) [Compound IX, 1,2-Bis(methylsulfonyl)-1-(2-chloroethyl)-2-(1-ethoxycarbonyl-2-phenylethyl)aminocarbonylhydrazine] | 147 | 165 | 160 | 174 | 60 | -2.5 | -0.5 | -1.9 | -1.9 | -0.9 | -2.0 | -2.0 |  | %T/C (average survival time treated/control × 100) ([1]; 25 mg/kg ip once daily × 6): 177%; %T/C (average survival time treated/control × 100) ([1]; 50 mg/kg ip once daily × 6): 225%; % 60 Day Survivors (cures) ([1]; 100 mg/kg ip once daily × 6): 100%; % 60 Day Survivors (cures) ([1]; 150 mg/kg ip once daily × 6): 20%; %T/C (average survival time treated/control × 100) ([1]; 150 mg/kg ip once daily × 6): 169%; Av. Wt. Change % ([2]; 150 mg/kg ip once daily × 6): -5.0%
C=CCNC(=O)N(N(CCCl)S(C)(=O)=O)S(C)(=O)=O [Compound V, 2-Allylaminocarbonyl-1,2-bis(methylsulfonyl)-1-(2-chloroethyl)hydrazine] | 184 | 394 |  |  |  | -1.6 | -2.1 | -2.9 |  |  |  |  | 40 | % 60 Day Survivors (cures) ([1]; 5 mg/kg ip once daily × 6): 20%; % 60 Day Survivors (cures) ([1]; 15 mg/kg ip once daily × 6): 100%; antileukemic activity / therapeutic potential (in words) ([1]; qualitative, L1210 leukemia in mice): highly efficacious against this tumor
CS(=O)(=O)N(CCCl)N(C(=O)NCCCCl)S(C)(=O)=O [Compound VI, 1,2-Bis(methylsulfonyl)-1-(2-chloroethyl)-2-(3-chloropropyl)aminocarbonylhydrazine] | 111 | 187 | 192 |  |  | -2.8 | -5.6 | -8.8 |  |  |  |  |  | % 60 Day Survivors (cures) ([1]; 15 mg/kg ip once daily × 6): 20%; cure rate (in words) ([1]; highest dosage level examined (15 mg/kg × 6)): partial cure rate of tumor-bearing mice
CCOC(=O)CNC(=O)N(N(CCCl)S(C)(=O)=O)S(C)(=O)=O [Compound VII, 1,2-Bis(methylsulfonyl)-1-(2-chloroethyl)-2-(ethoxycarbonylmethyl)aminocarbonylhydrazine] | 151 | 202 | 202 | 191 | 80 | -1.5 | -1.4 | -0.5 | -3.7 | -0.5 | -2.5 | -4.0 | 20 | % 60 Day Survivors (cures) ([1]; 20 mg/kg ip once daily × 6): 20%; % 60 Day Survivors (cures) ([1]; 25 mg/kg ip once daily × 6): 100%; %T/C (average survival time treated/control × 100) ([1]; 50 mg/kg ip once daily × 6): 138%; % 60 Day Survivors (cures) ([1]; 75 mg/kg ip once daily × 6): 60%; %T/C (average survival time treated/control × 100) ([1]; 75 mg/kg ip once daily × 6): 119%; %T/C (average survival time treated/control × 100) ([1]; 100 mg/kg ip once daily × 6): 115%; Av. Wt. Change % ([2]; 75 mg/kg ip once daily × 6): -1.5%
CCOC(=O)C(C)NC(=O)N(N(CCCl)S(C)(=O)=O)S(C)(=O)=O (stereo not shown) [Compound VIII, 1,2-Bis(methylsulfonyl)-1-(2-chloroethyl)-2-(1-ethoxycarbonylethyl)aminocarbonylhydrazine] | 170 | 178 | 185 | 227 | 100 | -2.0 | -1.4 | -0.5 | -1.5 | -2.5 | -3.3 | -2.5 | 20 | % 60 Day Survivors (cures) ([1]; 25 mg/kg ip once daily × 6): 60%; %T/C (average survival time treated/control × 100) ([1]; 25 mg/kg ip once daily × 6): 239%; % 60 Day Survivors (cures) ([1]; 75 mg/kg ip once daily × 6): 80%; %T/C (average survival time treated/control × 100) ([1]; 75 mg/kg ip once daily × 6): 125%; %T/C (average survival time treated/control × 100) ([1]; 100 mg/kg ip once daily × 6): 118%; Av. Wt. Change % ([2]; 75 mg/kg ip once daily × 6): -2.5%
O=P1(N(CCCl)CCCl)NCCCO1 (stereo not shown) [Cyclophosphamide, cyclophosphamide, reference compound] |  |  |  |  |  |  |  |  |  |  |  |  |  | delay in tumor growth (T-C) [3, 5]: 8.8 days; maximum %T/C [3, 5]: 143%
CC1CCC(NC(=O)N(CCCl)N=O)CC1 (stereo not shown) [MeCCNU, 1-(2-Chloroethyl)-3-(4-methylcyclohexyl)-1-nitrosourea] |  |  |  |  |  |  |  |  |  |  |  |  |  | delay in tumor growth (T-C) [4]: 33.5 days; maximum %T/C [4]: 128%
CO[C@@]12[C@H](COC(N)=O)C3=C(C(=O)C(C)=C(N)C3=O)N1C[C@@H]1N[C@@H]12 [Mitomycin C, mitomycin C, reference compound] |  |  |  |  |  |  |  |  |  |  |  |  |  | delay in tumor growth (T-C) [3, 6]: 10 days; maximum %T/C [3, 6]: 103%; delay in tumor growth (T-C) [3, 5]: 9.3 days; maximum %T/C [3, 5]: 134%
